Test results from PubChem BioAssay AID1919009 (Molecular Pharmacology Branch, DTP, NCI, 2023).
Each block holds one molecule with its values, some of them ahead of it.

System: K24384-001-R-PDC complex spheroid growth
Test: Anticancer human tumor K24384-001-R-PDC patient-derived pancreatic adenocarcinoma cell line growth inhibition [AhR]
Details: for IC50: curve of first compound; for viability, T/C: stronger effect = lower value
How it was run: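 Complex tumor spheroids co-cultured with HUVEC and human MSC stroma; AhR antagonists tested in combination with standard-of-care and investigational agents. Top concentration at or near clinical Cmax (else 10 microM), half-log dilutions; growth expressed as percent test/control.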

[1] = second compound 0.1 µM, first compound 0.00316 µM
[2] = second compound 0.1 µM, first compound 0.01 µM
[3] = second compound 0.1 µM, first compound 0.0316 µM
[4] = second compound 0.1 µM, first compound 0.1 µM
[5] = second compound 0.316 µM, first compound 0.00316 µM
[6] = second compound 0.316 µM, first compound 0.01 µM
[7] = second compound 0.316 µM, first compound 0.0316 µM
[8] = second compound 0.316 µM, first compound 0.1 µM
[9] = second compound 1 µM, first compound 0.00316 µM
[10] = second compound 1 µM, first compound 0.01 µM
[11] = second compound 1 µM, first compound 0.0316 µM
[12] = second compound 1 µM, first compound 0.1 µM
[13] = second compound 3.16 µM, first compound 0.00316 µM
[14] = second compound 3.16 µM, first compound 0.01 µM
[15] = second compound 3.16 µM, first compound 0.0316 µM
[16] = second compound 3.16 µM, first compound 0.1 µM
[17] = second compound 10 µM, first compound 0.00316 µM
[18] = second compound 10 µM, first compound 0.01 µM
[19] = second compound 10 µM, first compound 0.0316 µM
[20] = second compound 10 µM, first compound 0.1 µM
[21] = second compound 0.1 µM, first compound 0.316 µM
[22] = second compound 0.1 µM, first compound 1 µM
[23] = second compound 0.1 µM, first compound 3.16 µM
[24] = second compound 0.1 µM, first compound 10 µM
[25] = second compound 0.316 µM, first compound 0.316 µM
[26] = second compound 0.316 µM, first compound 1 µM
[27] = second compound 0.316 µM, first compound 3.16 µM
[28] = second compound 0.316 µM, first compound 10 µM
[29] = second compound 1 µM, first compound 0.316 µM
[30] = second compound 1 µM, first compound 1 µM
[31] = second compound 1 µM, first compound 3.16 µM
[32] = second compound 1 µM, first compound 10 µM
[33] = second compound 3.16 µM, first compound 0.316 µM
[34] = second compound 3.16 µM, first compound 1 µM
[35] = second compound 3.16 µM, first compound 3.16 µM
[36] = second compound 3.16 µM, first compound 10 µM
[37] = second compound 10 µM, first compound 0.316 µM
[38] = second compound 10 µM, first compound 1 µM
[39] = second compound 10 µM, first compound 3.16 µM
[40] = second compound 10 µM, first compound 10 µM
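Throughout, for viability, T/C: percent of DMSO vehicle-treated spheroid viability set as 100%.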

IC50 (second compound 0.1 µM): 43.2 nM | IC50 (second compound 0.316 µM): < 31.6 nM | IC50 (second compound 1 µM): 42.2 nM | IC50 (second compound 3.16 µM): < 31.6 nM | IC50 (second compound 10 µM): < 31.6 nM
Structure (SMILES): COc1cccc2c1C(=O)c1c(O)c3c(c(O)c1C2=O)CC(O)(C(=O)CO)CC3OC1CC(N)C(O)C(C)O1 (stereo not given) + Cc1cncc(-c2nc(NCCc3c[nH]c4ccccc34)c3ncn(C(C)C)c3n2)c1
viability, T/C [3]: 56.2% | viability, T/C [4]: 32.3% | viability, T/C [21]: 22% | viability, T/C [22]: 6.38% | viability, T/C [23]: 2.85% | viability, T/C [24]: 7.5% | viability, T/C [7]: 43.8% | viability, T/C [8]: 39.4% | viability, T/C [25]: 18.6% | viability, T/C [26]: 4.66% | viability, T/C [27]: 4.69% | viability, T/C [28]: 7.35% | viability, T/C [11]: 53.4% | viability, T/C [12]: 39.8% | viability, T/C [29]: 14.4% | viability, T/C [30]: 4.5% | viability, T/C [31]: 2.69% | viability, T/C [32]: 5.17% | viability, T/C [15]: 41.2% | viability, T/C [16]: 35.8% | viability, T/C [33]: 10.2% | viability, T/C [34]: 2.01% | viability, T/C [35]: 3.75% | viability, T/C [36]: 5.63% | viability, T/C [19]: 6.65% | viability, T/C [20]: 10.3% | viability, T/C [37]: 4.38% | viability, T/C [38]: 1.31% | viability, T/C [39]: 1.89% | viability, T/C [40]: 2.29%

IC50 (second compound 0.1 µM): 507 nM | IC50 (second compound 0.316 µM): 636 nM | IC50 (second compound 1 µM): 928 nM | IC50 (second compound 3.16 µM): 3070 nM | IC50 (second compound 10 µM): < 31.6 nM
Structure (SMILES): Nc1ccn(C2OC(CO)C(O)C2(F)F)c(=O)n1 (stereo not given) + Cc1cncc(-c2nc(NCCc3c[nH]c4ccccc34)c3ncn(C(C)C)c3n2)c1
viability, T/C [3]: 73.7% | viability, T/C [4]: 74.8% | viability, T/C [21]: 51.2% | viability, T/C [22]: 42.9% | viability, T/C [23]: 32.4% | viability, T/C [24]: 24.5% | viability, T/C [7]: 104% | viability, T/C [8]: 79.1% | viability, T/C [25]: 50.8% | viability, T/C [26]: 51.1% | viability, T/C [27]: 35.1% | viability, T/C [28]: 19.6% | viability, T/C [11]: 98.1% | viability, T/C [12]: 111% | viability, T/C [29]: 74.2% | viability, T/C [30]: 50.4% | viability, T/C [31]: 41.6% | viability, T/C [32]: 29.2% | viability, T/C [15]: 117% | viability, T/C [16]: 114% | viability, T/C [33]: 83.9% | viability, T/C [34]: 70.1% | viability, T/C [35]: 51.7% | viability, T/C [36]: 31.2% | viability, T/C [19]: 13.9% | viability, T/C [20]: 11.2% | viability, T/C [37]: 13.6% | viability, T/C [38]: 8.91% | viability, T/C [39]: 10.4% | viability, T/C [40]: 10.4%

IC50 (second compound 0.1 µM): > 1000 nM | IC50 (second compound 0.316 µM): > 1000 nM | IC50 (second compound 1 µM): > 1000 nM | IC50 (second compound 3.16 µM): > 1000 nM | IC50 (second compound 10 µM): < 3.16 nM
Structure (SMILES): Nc1ncn(C2CC(O)C(CO)O2)c(=O)n1 (stereo not given) + Cc1cncc(-c2nc(NCCc3c[nH]c4ccccc34)c3ncn(C(C)C)c3n2)c1
viability, T/C [1]: 83.2% | viability, T/C [2]: 97.6% | viability, T/C [3]: 92.8% | viability, T/C [4]: 77.5% | viability, T/C [21]: 62.8% | viability, T/C [22]: 51.1% | viability, T/C [5]: 91.1% | viability, T/C [6]: 101% | viability, T/C [7]: 95.8% | viability, T/C [8]: 77.7% | viability, T/C [25]: 72.2% | viability, T/C [26]: 63.6% | viability, T/C [9]: 80.2% | viability, T/C [10]: 101% | viability, T/C [11]: 103% | viability, T/C [12]: 82.5% | viability, T/C [29]: 99.4% | viability, T/C [30]: 66% | viability, T/C [13]: 83.1% | viability, T/C [14]: 100% | viability, T/C [15]: 87.8% | viability, T/C [16]: 66.8% | viability, T/C [33]: 67.9% | viability, T/C [34]: 70.2% | viability, T/C [17]: 13.3% | viability, T/C [18]: 14.3% | viability, T/C [19]: 14.8% | viability, T/C [20]: 10.8% | viability, T/C [37]: 8.89% | viability, T/C [38]: 11.4%

More lines, now with the values behind:

Structure (SMILES): CC[C@@]1(O)C(=O)OCc2c1cc1n(c2=O)Cc2cc3c(CN(C)C)c(O)ccc3nc2-1 + Cc1cncc(-c2nc(NCCc3c[nH]c4ccccc34)c3ncn(C(C)C)c3n2)c1
IC50 (second compound 0.1 µM): 42.4 nM | IC50 (second compound 0.316 µM): 42.2 nM | IC50 (second compound 1 µM): 30.7 nM | IC50 (second compound 3.16 µM): > 100 nM | IC50 (second compound 10 µM): < 0.316 nM | viability, T/C (second compound 0.1 µM, first compound 0.000316 µM): 97.6% | viability, T/C (second compound 0.1 µM, first compound 0.001 µM): 92.5% | viability, T/C [1]: 81.2% | viability, T/C [2]: 67.5% | viability, T/C [3]: 55.5% | viability, T/C [4]: 37.4% | viability, T/C (second compound 0.316 µM, first compound 0.000316 µM): 118% | viability, T/C (second compound 0.316 µM, first compound 0.001 µM): 100% | viability, T/C [5]: 87.9% | viability, T/C [6]: 73.9% | viability, T/C [7]: 51.6% | viability, T/C [8]: 38.2% | viability, T/C (second compound 1 µM, first compound 0.000316 µM): 91.3% | viability, T/C (second compound 1 µM, first compound 0.001 µM): 111% | viability, T/C [9]: 95.5% | viability, T/C [10]: 72.4% | viability, T/C [11]: 49.1% | viability, T/C [12]: 47% | viability, T/C (second compound 3.16 µM, first compound 0.000316 µM): 84.3% | viability, T/C (second compound 3.16 µM, first compound 0.001 µM): 93.8% | viability, T/C [13]: 86.4% | viability, T/C [14]: 59.3% | viability, T/C [15]: 52% | viability, T/C [16]: 49.4% | viability, T/C (second compound 10 µM, first compound 0.000316 µM): 12.7% | viability, T/C (second compound 10 µM, first compound 0.001 µM): 10.1% | viability, T/C [17]: 14.5% | viability, T/C [18]: 7.56% | viability, T/C [19]: 5.07% | viability, T/C [20]: 6.81%

Structure (SMILES): COc1cc(C2c3cc4c(cc3C(OC3OC5COC(C)OC5C(O)C3O)C3COC(=O)C23)OCO4)cc(OC)c1O (stereo not given) + Cc1cncc(-c2nc(NCCc3c[nH]c4ccccc34)c3ncn(C(C)C)c3n2)c1
IC50 (second compound 0.1 µM): 563 nM | IC50 (second compound 0.316 µM): 722 nM | IC50 (second compound 1 µM): 1650 nM | IC50 (second compound 3.16 µM): 806 nM | IC50 (second compound 10 µM): < 31.6 nM | viability, T/C [3]: 88.4% | viability, T/C [4]: 109% | viability, T/C [21]: 62.5% | viability, T/C [22]: 41.3% | viability, T/C [23]: 40% | viability, T/C [24]: 31.1% | viability, T/C [7]: 101% | viability, T/C [8]: 107% | viability, T/C [25]: 68.1% | viability, T/C [26]: 47.2% | viability, T/C [27]: 35.4% | viability, T/C [28]: 33.8% | viability, T/C [11]: 101% | viability, T/C [12]: 90.2% | viability, T/C [29]: 81.3% | viability, T/C [30]: 54.8% | viability, T/C [31]: 42.1% | viability, T/C [32]: 35.2% | viability, T/C [15]: 105% | viability, T/C [16]: 81.8% | viability, T/C [33]: 86.4% | viability, T/C [34]: 41.2% | viability, T/C [35]: 37.1% | viability, T/C [36]: 30.2% | viability, T/C [19]: 13.1% | viability, T/C [20]: 15.2% | viability, T/C [37]: 13.7% | viability, T/C [38]: 5.82% | viability, T/C [39]: 6.89% | viability, T/C [40]: 5.29%
